According to ChEMBL document CHEMBL1201862, “PubChem BioAssay data set” (2004):
Activity calls are given as the source filed them.

Assays:
Cytochrome P450 2C9 = Cytochrome P450 2C9 (Homo sapiens, UniProt P11712); settings: Potency
[1] = target: Cyclin-dependent kinase 5/CDK5 activator 1 (Homo sapiens, UniProt Q00535); experiment: CDK5/p35 kinase inhibitors, dose response, biochemical, cherry-picked samples, set 2 (AID 504545)
[2] = target: Neuropeptides B/W receptor type 1 (Homo sapiens, UniProt P48145); experiment: GPR7 antagonist potency, late-stage follow-up, cell-based, fluorescence, dose response (AID 463251); format: functional
[3] = target: Melanin-concentrating hormone receptor 1 (Homo sapiens, UniProt Q99705); experiment: Late-stage fluorescence-based counterscreen for antagonists of the G-protein coupled receptor 7 (GPR7): cell-based dose response assay to identify antagonists of the melanin-concentrating hormone receptor 1 (MCHR1). [Related pubchem assays (depositor defined):AID1861, AID1880, AID1952, AID2148, AID2251, AID2257, AID485339]; format: functional;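 also: stimulated with 30 nM MCH peptide agonist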
[4] = target: T1, Dual specificity protein phosphatase 6 (Rattus norvegicus, UniProt Q64346)
T1 sequence (Q64346 whole entry): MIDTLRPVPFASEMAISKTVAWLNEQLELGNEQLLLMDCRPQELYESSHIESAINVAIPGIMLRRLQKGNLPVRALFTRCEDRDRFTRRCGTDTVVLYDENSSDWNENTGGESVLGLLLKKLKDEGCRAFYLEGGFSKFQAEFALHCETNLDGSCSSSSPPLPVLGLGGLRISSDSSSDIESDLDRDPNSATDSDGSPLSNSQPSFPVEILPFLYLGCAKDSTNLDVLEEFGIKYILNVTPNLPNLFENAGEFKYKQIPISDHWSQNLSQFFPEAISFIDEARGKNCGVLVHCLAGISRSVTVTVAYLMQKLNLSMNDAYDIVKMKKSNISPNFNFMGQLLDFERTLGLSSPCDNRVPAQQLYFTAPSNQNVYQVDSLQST

[5] = target: T1, Dual specificity protein phosphatase 6; format: functional
[6] = target: Heat shock cognate 71 kDa protein (Homo sapiens, UniProt P11142); experiment: In Vitro Hsc70 Dose Response Fluorescence Polarization Assay. [Related pubchem assays: 1072 ]
[7] = target: T2, Tyrosine-protein phosphatase non-receptor type 7 (Homo sapiens, UniProt P35236); format: functional
T2 sequence (P35236 whole entry): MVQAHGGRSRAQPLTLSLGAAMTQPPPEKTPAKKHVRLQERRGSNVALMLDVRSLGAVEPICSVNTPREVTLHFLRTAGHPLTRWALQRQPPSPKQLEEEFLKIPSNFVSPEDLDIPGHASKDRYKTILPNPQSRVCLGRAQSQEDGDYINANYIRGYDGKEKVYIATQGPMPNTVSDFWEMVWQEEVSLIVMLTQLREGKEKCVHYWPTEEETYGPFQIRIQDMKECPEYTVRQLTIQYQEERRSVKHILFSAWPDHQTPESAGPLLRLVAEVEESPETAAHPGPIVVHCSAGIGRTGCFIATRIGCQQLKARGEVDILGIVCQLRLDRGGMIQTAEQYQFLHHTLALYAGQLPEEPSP

[8] = target: Heat shock 70 kDa protein 1A (Homo sapiens, UniProt P0DMV8); experiment: Hsp70 inhibitors, SAR follow-up, biochemical, fluorescence polarization (AID 1072)
[9] = target: Glyceraldehyde-3-phosphate dehydrogenase (Homo sapiens, UniProt P04406)
[10] = tested on: Streptococcus sp. 'group A'; experiment: growth inhibition of control SK(-) GAS strain, dose response, counter-screen for streptokinase expression inhibitor project, luminescence, kanamycin, BacTiterGlo, confirmation (AID 1900); format: functional, organism-based
Streptococcus [11] = experiment: Luminescence Microorganism-Based Dose Response Follow up to Identify Compounds Cytotoxic to Streptococcus. [Related pubchem assays: 1677 (Project Summary), 1915, 1914, 1902 (Retest at Dose), 1900 (Counter Screen), 1662 (Primary HTS)]; format: functional, organism-based
Streptokinase A = target: T3, Streptokinase A (Streptococcus pyogenes serotype M1, UniProt P10520); experiment: S. pyogenes streptokinase expression inhibitors, potency, dose response, plasminogen activation absorbance, OD405 (AID 1914); format: functional, Streptococcus pyogenes M1 GAS;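 also: secreted streptokinase activity via plasminogen activation per viability signal from cell pellet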
T3 sequence (P10520 whole entry): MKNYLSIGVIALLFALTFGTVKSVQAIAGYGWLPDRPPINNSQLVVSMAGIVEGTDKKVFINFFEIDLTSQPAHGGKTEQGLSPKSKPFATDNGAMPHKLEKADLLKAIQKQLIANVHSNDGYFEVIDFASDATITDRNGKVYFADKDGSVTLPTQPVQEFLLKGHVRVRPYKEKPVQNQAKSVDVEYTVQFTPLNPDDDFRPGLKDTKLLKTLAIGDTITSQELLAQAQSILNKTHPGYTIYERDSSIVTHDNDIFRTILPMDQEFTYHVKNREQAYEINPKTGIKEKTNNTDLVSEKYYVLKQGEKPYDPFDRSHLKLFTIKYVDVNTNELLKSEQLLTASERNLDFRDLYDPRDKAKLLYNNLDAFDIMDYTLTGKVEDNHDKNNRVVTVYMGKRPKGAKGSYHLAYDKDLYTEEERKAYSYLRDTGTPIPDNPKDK

Streptococcus [12] = experiment: Group A Streptococcus viability loss, dose response, counter-screen for streptokinase expression inhibitor project, luminescence, BacTiterGlo (AID 1915); format: functional, organism-based;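 also: potency for reduction of bacterial viability or growth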
[13] = target: Kappa-type opioid receptor (Homo sapiens, UniProt P41145); experiment: SAR analysis of small molecule agonists of the kappa opioid receptor via a luminescent beta-arrestin assay - Set 2. [Related pubchem assays (depositor defined):AID1777, AID1785, AID1786, AID1966, AID2133, AID2136, AID2284, AID449737]; format: functional
Tumor necrosis factor = Tumor necrosis factor (Homo sapiens, UniProt P01375); experiment: TNFa-triggered NF-kB activation inhibitors, SAR follow-up, cell-based, revised (AID 2337); format: functional
HEK293 [14] = experiment: cells; settings: Homo sapiens
HEK293 [15] = experiment: SAR analysis of compounds that are cytotoxic to HEK293 - Set 3. [Related pubchem assays (depositor defined):AID1575, AID1578, AID1848, AID1849, AID2001, AID2333, AID2334, AID2335, AID2337, AID2469]; format: functional, cell-based; settings: Homo sapiens
Interleukin-8 = Interleukin-8 (Homo sapiens, UniProt P10145); experiment: SAR analysis of tumor necrosis factor alpha (TNF-alpha) induced IL-8 secretion in MCF-7/NOD1 cells. [Related pubchem assays (depositor defined):AID1575, AID2250, AID2260]; format: functional, cell-based
[16] = target: G-protein coupled receptor 55 (Homo sapiens, UniProt Q9Y2T6); experiment: GPR55 antagonists blocking LPI-driven arrestin recruitment, primary screen, imaging, U2OS, beta-arrestin-GFP, LPI agonist (AID 2013); format: functional;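 also: antagonist potency measured as reduced agonist-driven arrestin aggregation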
[17] = HEp-2 cell cytotoxicity, dose response, cytotoxicity control for RSV inhibitor project, HTS (AID 2410); format: functional; settings: human respiratory syncytial virus

Sequence of Cytochrome P450 2C9 (P11712 whole entry): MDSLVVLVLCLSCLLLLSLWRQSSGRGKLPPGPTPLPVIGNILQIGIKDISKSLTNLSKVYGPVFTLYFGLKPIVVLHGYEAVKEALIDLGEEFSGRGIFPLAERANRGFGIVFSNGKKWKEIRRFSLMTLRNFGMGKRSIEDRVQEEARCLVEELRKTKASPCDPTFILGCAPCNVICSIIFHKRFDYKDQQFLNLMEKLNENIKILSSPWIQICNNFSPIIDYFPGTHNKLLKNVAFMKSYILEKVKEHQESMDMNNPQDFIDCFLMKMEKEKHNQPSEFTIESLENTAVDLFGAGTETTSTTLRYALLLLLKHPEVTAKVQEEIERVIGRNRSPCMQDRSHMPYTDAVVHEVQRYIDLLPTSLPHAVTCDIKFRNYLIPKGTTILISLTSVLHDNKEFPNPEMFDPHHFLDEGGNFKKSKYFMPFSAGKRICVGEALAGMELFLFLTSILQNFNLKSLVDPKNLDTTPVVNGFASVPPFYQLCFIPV
Sequence of Melanin-concentrating hormone receptor 1 (Q99705 whole entry): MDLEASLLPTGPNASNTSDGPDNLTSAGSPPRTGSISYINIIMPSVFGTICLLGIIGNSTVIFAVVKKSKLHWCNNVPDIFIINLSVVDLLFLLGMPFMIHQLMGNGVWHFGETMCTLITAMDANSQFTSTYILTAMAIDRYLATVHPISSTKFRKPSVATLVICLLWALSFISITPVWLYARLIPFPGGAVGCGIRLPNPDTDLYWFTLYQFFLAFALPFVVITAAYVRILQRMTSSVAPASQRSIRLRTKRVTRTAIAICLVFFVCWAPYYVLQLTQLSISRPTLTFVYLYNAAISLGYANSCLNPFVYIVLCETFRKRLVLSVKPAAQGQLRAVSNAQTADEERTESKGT
Sequence of Interleukin-8 (P10145 whole entry): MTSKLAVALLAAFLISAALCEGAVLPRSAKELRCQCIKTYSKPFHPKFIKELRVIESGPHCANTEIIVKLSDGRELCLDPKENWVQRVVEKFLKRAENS
Sequence of Neuropeptides B/W receptor type 1 (P48145 whole entry): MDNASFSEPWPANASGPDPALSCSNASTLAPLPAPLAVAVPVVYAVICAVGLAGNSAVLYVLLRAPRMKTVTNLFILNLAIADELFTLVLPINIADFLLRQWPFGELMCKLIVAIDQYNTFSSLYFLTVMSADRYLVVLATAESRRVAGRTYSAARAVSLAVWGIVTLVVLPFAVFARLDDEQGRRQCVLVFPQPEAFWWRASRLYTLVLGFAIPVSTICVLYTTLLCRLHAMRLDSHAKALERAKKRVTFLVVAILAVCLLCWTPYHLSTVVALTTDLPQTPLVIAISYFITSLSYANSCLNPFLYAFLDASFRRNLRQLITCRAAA
Sequence of Cyclin-dependent kinase 5/CDK5 activator 1 (Q00535 whole entry): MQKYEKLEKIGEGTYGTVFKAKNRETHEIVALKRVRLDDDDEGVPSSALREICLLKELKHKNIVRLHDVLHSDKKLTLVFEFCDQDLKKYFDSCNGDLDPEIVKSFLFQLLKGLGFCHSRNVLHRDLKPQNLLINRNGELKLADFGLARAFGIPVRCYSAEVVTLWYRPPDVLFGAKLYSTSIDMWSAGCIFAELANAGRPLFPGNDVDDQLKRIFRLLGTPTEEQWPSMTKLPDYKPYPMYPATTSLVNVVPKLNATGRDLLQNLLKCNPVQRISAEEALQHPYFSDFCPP
Sequence of Cyclin-dependent kinase 5/CDK5 activator 1 (Q15078 whole entry, further chain): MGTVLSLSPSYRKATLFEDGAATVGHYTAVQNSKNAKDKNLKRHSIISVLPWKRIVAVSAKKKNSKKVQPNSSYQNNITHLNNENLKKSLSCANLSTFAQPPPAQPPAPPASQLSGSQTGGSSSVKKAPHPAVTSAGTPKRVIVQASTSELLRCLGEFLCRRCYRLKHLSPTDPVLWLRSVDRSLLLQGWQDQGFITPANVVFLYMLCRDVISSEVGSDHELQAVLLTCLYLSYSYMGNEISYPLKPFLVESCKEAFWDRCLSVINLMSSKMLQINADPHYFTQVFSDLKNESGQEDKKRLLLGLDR
Sequence of Tumor necrosis factor (P01375 whole entry): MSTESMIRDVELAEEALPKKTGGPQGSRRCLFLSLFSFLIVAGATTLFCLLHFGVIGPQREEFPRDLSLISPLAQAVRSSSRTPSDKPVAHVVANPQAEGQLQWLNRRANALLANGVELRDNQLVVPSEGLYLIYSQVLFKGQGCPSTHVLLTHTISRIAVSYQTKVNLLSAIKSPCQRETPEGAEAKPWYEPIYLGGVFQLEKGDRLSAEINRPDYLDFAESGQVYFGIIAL
Sequence of Heat shock cognate 71 kDa protein (P11142 whole entry): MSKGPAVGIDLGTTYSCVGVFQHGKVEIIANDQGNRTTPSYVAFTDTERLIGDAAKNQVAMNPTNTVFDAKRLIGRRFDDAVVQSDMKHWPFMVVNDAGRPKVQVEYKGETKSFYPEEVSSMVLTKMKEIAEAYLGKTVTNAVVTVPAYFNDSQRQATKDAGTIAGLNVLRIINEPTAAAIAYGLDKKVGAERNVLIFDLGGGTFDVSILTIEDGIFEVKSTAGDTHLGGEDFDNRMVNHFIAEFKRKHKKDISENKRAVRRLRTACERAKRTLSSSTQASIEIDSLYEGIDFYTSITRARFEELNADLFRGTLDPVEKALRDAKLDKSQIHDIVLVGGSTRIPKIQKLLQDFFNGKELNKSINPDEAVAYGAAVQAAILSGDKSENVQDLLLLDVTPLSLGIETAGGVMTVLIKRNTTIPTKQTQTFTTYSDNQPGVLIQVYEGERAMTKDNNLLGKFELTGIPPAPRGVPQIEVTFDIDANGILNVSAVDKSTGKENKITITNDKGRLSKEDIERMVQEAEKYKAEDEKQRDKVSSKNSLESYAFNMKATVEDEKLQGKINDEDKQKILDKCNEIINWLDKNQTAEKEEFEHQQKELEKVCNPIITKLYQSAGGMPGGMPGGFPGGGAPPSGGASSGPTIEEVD
Sequence of Heat shock 70 kDa protein 1A (P0DMV8 whole entry): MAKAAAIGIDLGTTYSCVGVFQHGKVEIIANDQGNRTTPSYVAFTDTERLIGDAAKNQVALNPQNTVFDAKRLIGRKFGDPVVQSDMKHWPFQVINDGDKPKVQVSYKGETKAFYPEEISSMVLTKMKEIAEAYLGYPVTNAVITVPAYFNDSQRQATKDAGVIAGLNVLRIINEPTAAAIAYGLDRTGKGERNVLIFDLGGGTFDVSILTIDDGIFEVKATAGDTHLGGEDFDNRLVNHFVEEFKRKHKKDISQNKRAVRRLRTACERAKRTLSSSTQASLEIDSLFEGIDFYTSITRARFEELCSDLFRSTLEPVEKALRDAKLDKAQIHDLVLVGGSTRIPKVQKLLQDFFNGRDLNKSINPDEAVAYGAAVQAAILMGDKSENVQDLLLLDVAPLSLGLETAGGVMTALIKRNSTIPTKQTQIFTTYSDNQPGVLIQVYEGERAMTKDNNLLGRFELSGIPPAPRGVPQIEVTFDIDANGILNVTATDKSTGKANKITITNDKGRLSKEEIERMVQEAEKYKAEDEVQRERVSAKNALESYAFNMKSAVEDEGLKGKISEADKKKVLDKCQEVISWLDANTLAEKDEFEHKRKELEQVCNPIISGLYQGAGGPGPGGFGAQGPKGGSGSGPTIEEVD
Sequence of G-protein coupled receptor 55 (Q9Y2T6 whole entry): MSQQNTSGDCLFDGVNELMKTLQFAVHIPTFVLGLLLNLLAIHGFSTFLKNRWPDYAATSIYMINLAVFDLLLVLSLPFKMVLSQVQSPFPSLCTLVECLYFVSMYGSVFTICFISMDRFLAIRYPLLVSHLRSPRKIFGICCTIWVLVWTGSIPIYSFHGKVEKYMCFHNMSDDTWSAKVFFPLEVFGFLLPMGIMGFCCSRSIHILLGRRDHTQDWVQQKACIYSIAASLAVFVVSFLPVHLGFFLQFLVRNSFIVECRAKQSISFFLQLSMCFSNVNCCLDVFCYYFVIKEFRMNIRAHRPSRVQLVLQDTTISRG
Sequence of Kappa-type opioid receptor (P41145 whole entry): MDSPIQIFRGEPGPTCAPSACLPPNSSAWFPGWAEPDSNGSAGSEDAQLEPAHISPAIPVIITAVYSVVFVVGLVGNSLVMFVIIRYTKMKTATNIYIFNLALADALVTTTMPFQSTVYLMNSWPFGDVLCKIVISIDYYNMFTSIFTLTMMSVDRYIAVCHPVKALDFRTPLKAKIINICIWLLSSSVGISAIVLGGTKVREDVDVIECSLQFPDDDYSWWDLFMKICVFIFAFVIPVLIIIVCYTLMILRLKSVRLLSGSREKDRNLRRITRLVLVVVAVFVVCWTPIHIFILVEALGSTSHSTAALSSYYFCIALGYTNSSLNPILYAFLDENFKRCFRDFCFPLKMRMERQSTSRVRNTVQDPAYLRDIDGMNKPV
Sequence of Glyceraldehyde-3-phosphate dehydrogenase (P04406 whole entry): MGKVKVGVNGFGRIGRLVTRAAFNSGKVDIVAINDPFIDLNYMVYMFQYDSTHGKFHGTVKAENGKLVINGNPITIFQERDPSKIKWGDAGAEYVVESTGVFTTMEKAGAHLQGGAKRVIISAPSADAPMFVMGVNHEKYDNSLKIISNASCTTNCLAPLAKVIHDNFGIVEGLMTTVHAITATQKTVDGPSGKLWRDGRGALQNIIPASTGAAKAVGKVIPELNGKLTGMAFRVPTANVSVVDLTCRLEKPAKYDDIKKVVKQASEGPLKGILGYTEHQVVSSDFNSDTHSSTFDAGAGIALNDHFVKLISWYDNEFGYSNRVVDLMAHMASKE

CC(C)CCN1CCc2nc(COc3ccccc3)c3c(c2C1)COC(C)C3 (stereo unspecified)
AC50 (Cytochrome P450 2C9): 6.31 µM (inconclusive)

Clc1cncc(Cl)c1N/N=C/c1ccncc1
AC50 [1]: 52.8 µM (active)

CC(C)c1ccc(-n2ncc(Cl)c(Oc3ccc(N)cc3)c2=O)cc1
IC50 [2]: 2.5 µM (active)
IC50 [3]: 7 µM (active)

COc1ccc2c(c1)C1C=CCC1C(C(=O)O)N2 (stereo unspecified)
IC50 [4]: 33.5 µM (active)
IC50 [5]: 32 µM (active)
IC50 [6]: > 100 µM (not active)
IC50 [7]: 13.2 µM (active)
IC50 [8]: 20.6 µM (active)
IC50 [9]: > 100 µM (not active)

CC(C)c1ccc(NC(=O)c2cc(S(=O)(=O)NCC3COc4ccccc4O3)ccc2F)cc1 (stereo unspecified)
EC50 [10]: 12.2 µM (active)
EC50 (Streptococcus [11]): > 500 µM (not active)
EC50 (Streptokinase A): 3.53 µM (active)
EC50 (Streptococcus [12]): 74.4 µM (active)

O=C(CN(Cc1cccs1)C(=O)c1ccccn1)NC1CCCCCC1
EC50 [13]: > 20 µM (inactive)

Cc1ccc(S(=O)(=O)n2c(N)nc3cc(C)c(C)cc32)cc1
IC50 (Tumor necrosis factor): > 20 µM (inactive)
IC50 (HEK293 [14]): > 20 µM (inactive)
IC50 (HEK293 [15]): > 20 µM (inactive)
IC50 (Interleukin-8): > 5 µM (inactive)

COc1ccc(-c2sc(Nc3ccccc3)n[n+]2-c2ccc(F)cc2)c(C)c1C
IC50 [16]: 2.11 µM (active)
CC50 [17]: 28.5 µM (active)
